Laboratory results published in patent US7279491B2 (Janssen Pharmaceutica N.V., priority 2002, dated 2007).

What follows are compounds tested against T1, human histamine H3 receptor (Homo sapiens, UniProt Q9Y5N1) (assay: {3H}-N-methylhistamine binding to membranes of histamine H3 receptor-expressing SK-N-MC cells). Conditions: 0.8 nM {3H}-N-methylhistamine, 45 min at 25° C., Ki=(IC50)/(1+({L}/(Kd)), Kd 800 pM).
T1 construct: One microgram of supercoiled H3 receptor cDNA was added to the cells and mixed; expressed in transfected cells; membranes
T1 sequence (Q9Y5N1 whole entry): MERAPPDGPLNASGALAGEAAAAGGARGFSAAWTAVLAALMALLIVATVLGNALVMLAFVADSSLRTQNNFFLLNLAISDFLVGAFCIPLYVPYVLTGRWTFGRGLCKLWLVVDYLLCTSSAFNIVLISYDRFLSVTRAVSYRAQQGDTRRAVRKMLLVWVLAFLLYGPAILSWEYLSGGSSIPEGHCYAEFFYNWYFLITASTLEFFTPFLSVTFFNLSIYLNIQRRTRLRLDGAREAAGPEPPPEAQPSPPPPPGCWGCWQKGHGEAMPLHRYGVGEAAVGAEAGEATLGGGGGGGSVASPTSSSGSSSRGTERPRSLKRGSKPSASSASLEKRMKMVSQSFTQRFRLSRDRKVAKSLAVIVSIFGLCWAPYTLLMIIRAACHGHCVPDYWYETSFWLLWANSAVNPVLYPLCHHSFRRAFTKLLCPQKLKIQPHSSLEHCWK
Protocol: Transfection of Cells with Human Histamine Receptor
A 10 cm tissue culture dish with a confluent monolayer of SK-N-MC cells was split two days prior to transfection. Using sterile technique the media was removed and the cells were detached from the dish by the addition of trypsin. One fifth of the cells were then placed onto a new 10 cm dish. Cells were grown in a 37° C. incubator with 5% CO2 in Minimal Essential Media Eagle with 10% Fetal Bovine Serum. After two days cells were approximately 80% confluent. These were removed from the dish with trypsin and pelleted in a clinical centrifuge. The pellet was then re-suspended in 400 μL complete media and transferred to an electroporation cuvette with a 0.4 cm gap between the electrodes. One microgram of supercoiled H3 receptor cDNA was added to the cells and mixed. The voltage for the electroporation was set at 0.25 kV, the capacitance was set at 960 μF. After electroporation the cells were diluted into 10 mL complete media and plated onto four 10 cm dishes. Because of the variability in the efficiency of electroporation, four different concentrations of cells were plated. The ratios used were; 1:20, 1:10, 1:5, with the remainder of the cells being added to the fourth dish. The cells were allowed to recover for 24 h before adding the selection media (complete media with 600 μg/mL G418). After 10 days dishes were analyzed for surviving colonies of cells. Dishes with well-isolated colonies were used. Cells from individual colonies were isolated and tested. SK-N-MC cells were used because they give efficient coupling for inhibition of adenylate cyclase. The clones that gave the most robust inhibition of adenylate cyclase in response to histamine were used for further study.
{^3H}-N-methylhistamine Binding
Cell pellets from histamine H3 receptor-expressing SK-N-MC cells were homogenized in 20 mM Tris HCl/0.5 mM EDTA. Supernatants from an 800 g spin were collected, recentrifuged at 30,000 g for 30 min. Pellets were re-homogenized in 50 mM Tris/5 mM EDTA (pH 7.4). Membranes were incubated with 0.8 nM {^3H}-N-methylhistamine plus/minus test compounds for 45 min at 25° C. and harvested by rapid filtration over GF/C glass fiber filters (pretreated with 0.3% polyethylenimine) followed by four washes with ice-cold buffer. Filters were dried, added to 4 mL scintillation cocktail and then counted on a liquid scintillation counter. Non-specific binding was defined with 10 μM histamine. The pKi values were calculated based on a Kd of 800 pM and a ligand concentration ({L}) of 800 pM according to the formula: Ki=(IC50)/(1+({L}/(Kd))
Compound c1ccc(N2CCC(CN3CCCCC3)CC2)c(CN2CCOCC2)c1 [Example 22, 4-{2-(4-piperidin-1-ylmethyl-piperidin-1-yl)-benzyl}-morpholine] has a Ki of 4500 nM. Compound c1cc(N2CCC(CNC3CCCCC3)CC2)ccc1CN1CCCC1 [Example 23, Cyclohexyl-{1-(4-pyrrolidin-1-ylmethyl-phenyl)-piperidin-4-ylmethyl}-amine] has a Ki of 0.9 nM. c1cc(N2CCC(CN3CCCCCCCCCCCC3)CC2)ccc1CN1CCCC1 [Example 24, 1-{1-(4-Pyrrolidin-1-ylmethyl-phenyl)-piperidin-4-ylmethyl}-azacyclotridecane] gave a Ki of 23 nM. For CCN(CC)CC1CCN(c2ccc(CN3CCCC3)cc2)CC1 [Example 25, Diethyl-{1-(4-pyrrolidin-1-ylmethyl-phenyl)-piperidin-4-ylmethyl}-amine], the Ki was 0.8 nM. CN(C)CC1CCN(c2ccc(CN3CCCC3)cc2)CC1 [Example 26, Dimethyl-{1-(4-pyrrolidin-1-ylmethyl-phenyl)-piperidin-4-ylmethyl}-amine] gave a Ki of 1.7 nM. For CN1CCN(CC2CCN(c3ccc(CN4CCCC4)cc3)CC2)CC1 [Example 27, 1-Methyl-4-{1-(4-pyrrolidin-1-ylmethyl-phenyl)-piperidin-4-ylmethyl}-piperazine], the Ki was 1.4 nM. OC1CCN(CC2CCN(c3ccc(CN4CCCC4)cc3)CC2)CC1 [Example 28, 1-{1-(4-Pyrrolidin-1-ylmethyl-phenyl)-piperidin-4-ylmethyl}-piperidin-4-ol] showed a Ki of 0.8 nM. c1cc(N2CCC(CN3CCSCC3)CC2)ccc1CN1CCCC1 [Example 29, 4-{1-(4-Pyrrolidin-1-ylmethyl-phenyl)-piperidin-4-ylmethyl}-thiomorpholine] showed a Ki of 2 nM. c1cc(N2CCC(CN3CCCCC3)CC2)ccc1CN1CCCC1 [Example 30, 1-{1-(4-Pyrrolidin-1-ylmethyl-phenyl)-piperidin-4-ylmethyl}-piperidine] showed a Ki of 1 nM. With c1cc(N2CCC(CN3CCOCC3)CC2)ccc1CN1CCCC1 [Example 31, 4-{1-(4-Pyrrolidin-1-ylmethyl-phenyl)-pieridin-4-ylmethyl}-morpholine] the Ki was 2 nM. Work on c1cc(CN2CCSCC2)cc(N2CCC(CN3CCCC3)CC2)c1 [Example 32, 4-{3-(4-Pyrrolidin-1-ylmethyl-piperidin-1-yl)-benzyl}-thiomorpholine] yielded a Ki of 9 nM. c1cc(CN2CCOCC2)cc(N2CCC(CN3CCCC3)CC2)c1 [Example 33, 4-{3-(4-Pyrrolidin-1-ylmethyl-piperidin-1-yl)-benzyl}-morpholine] was tested, and the Ki was 20 nM. In the case of c1cc(CN2CCCC2)cc(N2CCC(CN3CCCC3)CC2)c1 [Example 34, 4-Pyrrolidin-1-ylmethyl-1-(3-pyrrolidin-1-ylmethyl-phenyl)-piperidine], the Ki is reported as 6 nM. In the case of c1cc(CN2CCCCC2)cc(N2CCC(CN3CCCC3)CC2)c1 [Example 35, 1-{3-(4-pyrrolidin-1-ylmethyl-piperidin-1-yl)-benzyl}-piperidine], the Ki is reported as 10 nM. In the case of c1cc(N2CCC(CN3CCCC3)CC2)ccc1CN1CCCCCCCCCCCC1 [Example 36, 1-{4-(4-Pyrrolidin-1-ylmethyl-piperidin-1-yl)-benzyl}-azacyclotridecane], the Ki is reported as 6 nM. c1cc(N2CCC(CN3CCCC3)CC2)ccc1CNC1CCCCC1 [Example 37, Cyclohexyl-{4-(4-pyrrolidin-1-ylmethyl-piperidin-1-yl)-benzyl}-amine] gave a Ki of 2 nM. OC1CCN(Cc2ccc(N3CCC(CN4CCCC4)CC3)cc2)CC1 [Example 38, 1-{4-(4-Pyrrolidin-1-ylmethyl-piperidin-1-yl)-benzyl}-piperidin-4-ol] showed a Ki of 5 nM. For CN1CCN(Cc2ccc(N3CCC(CN4CCCC4)CC3)cc2)CC1 [Example 39, 1-Methyl-4-{4-(4-pyrrolidin-1-ylmethyl-piperidin-1-yl)-benzyl}-piperazine], the Ki was 6 nM. Compound c1cc(N2CCC(CN3CCCC3)CC2)ccc1CN1CCSCC1 [Example 40, 4-{4-(4-Pyrrolidin-1-ylmethyl-piperidin-1-yl)-benzyl}-thiomorpholine] has a Ki of 4 nM.
